Measurements as given in patent US20170094976A1, “TREATMENT OF WATER” (BWA WATER ADDITIVES UK LIMITED, priority 2015, published 2017).

Key:
[1] = tested on: Enterobacter aerogenes; test: Log10 reduction of viable facultative anaerobic bacteria in high-TDS buffer after biocide contact; assay type: cell-based; details: TDS 30,000 mg l^-1, pH 8 phosphate buffer, room temperature, versus control, ppm active per example, 8 = complete kill
Protocol: (§1) Aqueous systems inoculated with anaerobe and facultative anaerobe culture and having a total dissolved solids (TDS) concentration of 30,000 mg l^−1 were prepared and treated with treatment agents comprising: (a) a phosphonium compound and (b) a quaternary ammonium salt. The phosphonium compound (a) used was tri n-butyl n-tetradecyl phosphonium chloride (TTPC). The quaternary ammonium salt (b) used was 1-(3-chloroallyl)-3,5,7-triaza-1-azoniaadamantane chloride (CTAC).
(§2) A suspension of Desulfovibrio vulgaris plus Enterobacter aerogenes bacteria containing from 1×10^5 to 1×10^6 cells/mL was prepared in sterile pH 8 phosphate buffer containing sodium chloride to give the desired total dissolved solids (TDS) concentration. Aliquots of this suspension were dosed with the indicated concentrations of the compounds (a) and (b) with the concentrations being measured as ppm active by weight. The mixtures were allowed to stand at room temperature. At the designated contact times, each mixture was sampled to determine the total number of viable cells of both Desulfovibrio vulgaris and Enterobacter aerogenes by serial 10-fold dilution into API RP 38 media vials and anaerobic acid producing media vials, respectively. The vials were incubated at 37° C. for 72 hours. Results were recorded as log10 reduction in the viable count versus the control.
(§3) The efficacy of the treatment agents was evaluated by measuring the Log10 Reduction of the anaerobic bacterium Desulfovibrio vulgaris and the facultative anaerobic bacterium Enterobacter aerogenes after contact times of 1 hour, 4 hours, 24 hours and 48 hours as detailed in Table 1. For TTPC the stated ppm value relates to the amount of TTPC added (active). For the CTAC the stated ppm relates to the amount of CTAC added (active).

[2] = tested on: Desulfovibrio vulgaris; test: Log10 reduction of viable anaerobic bacteria in high-TDS buffer after biocide contact; assay type: cell-based; details: TDS 30,000 mg l^-1, pH 8 phosphate buffer, room temperature, versus control, ppm active per example, 5 = complete kill
Protocol: as §1, §2, §3

## CCCCCCCCCCCCCC[P+](CCCC)(CCCC)CCCC.[Cl-] [Example 1, tri n-butyl n-tetradecyl phosphonium chloride]
[1]; contact time 1 hour
  Log10 Reduction Facultative Anaerobes: 1
[2]; contact time 1 hour
  Log10 Reduction Anaerobes: 2

## CCCCCCCCCCCCCC[P+](CCCC)(CCCC)CCCC.[Cl-] [Example 2, tri n-butyl n-tetradecyl phosphonium chloride]
[1]; contact time 1 hour
  Log10 Reduction Facultative Anaerobes: 3
[2]; contact time 1 hour
  Log10 Reduction Anaerobes: 3

## ClC=CC[N+]12CN3CN(CN(C3)C1)C2.[Cl-] [Example 4, 1-(3-chloroallyl)-3,5,7-triaza-1-azoniaadamantane chloride]
[1]; contact time 1 hour
  Log10 Reduction Facultative Anaerobes: 0
[2]; contact time 1 hour
  Log10 Reduction Anaerobes: 0

## CCCCCCCCCCCCCC[P+](CCCC)(CCCC)CCCC.[Cl-] [Example 9, tri n-butyl n-tetradecyl phosphonium chloride]
[1]; contact time 4 hours
  Log10 Reduction Facultative Anaerobes: 2
[2]; contact time 4 hours
  Log10 Reduction Anaerobes: 5

## CCCCCCCCCCCCCC[P+](CCCC)(CCCC)CCCC.[Cl-] [Example 10, tri n-butyl n-tetradecyl phosphonium chloride]
[1]; contact time 4 hours
  Log10 Reduction Facultative Anaerobes: 8
[2]; contact time 4 hours
  Log10 Reduction Anaerobes: 5

## ClC=CC[N+]12CN3CN(CN(C3)C1)C2.[Cl-] [Example 11, 1-(3-chloroallyl)-3,5,7-triaza-1-azoniaadamantane chloride]
[1]; contact time 4 hours
  Log10 Reduction Facultative Anaerobes: 0
[2]; contact time 4 hours
  Log10 Reduction Anaerobes: 0

## ClC=CC[N+]12CN3CN(CN(C3)C1)C2.[Cl-] [Example 12, 1-(3-chloroallyl)-3,5,7-triaza-1-azoniaadamantane chloride]
[1]; contact time 4 hours
  Log10 Reduction Facultative Anaerobes: 1
[2]; contact time 4 hours
  Log10 Reduction Anaerobes: 0

## CCCCCCCCCCCCCC[P+](CCCC)(CCCC)CCCC.[Cl-] [Example 17, tri n-butyl n-tetradecyl phosphonium chloride]
[1]; contact time 24 hours
  Log10 Reduction Facultative Anaerobes: 4
[2]; contact time 24 hours
  Log10 Reduction Anaerobes: 5

## CCCCCCCCCCCCCC[P+](CCCC)(CCCC)CCCC.[Cl-] [Example 18, tri n-butyl n-tetradecyl phosphonium chloride]
[1]; contact time 24 hours
  Log10 Reduction Facultative Anaerobes: 7
[2]; contact time 24 hours
  Log10 Reduction Anaerobes: 5

## ClC=CC[N+]12CN3CN(CN(C3)C1)C2.[Cl-] [Example 19, 1-(3-chloroallyl)-3,5,7-triaza-1-azoniaadamantane chloride]
[1]; contact time 24 hours
  Log10 Reduction Facultative Anaerobes: 0
[2]; contact time 24 hours
  Log10 Reduction Anaerobes: 1

## ClC=CC[N+]12CN3CN(CN(C3)C1)C2.[Cl-] [Example 20, 1-(3-chloroallyl)-3,5,7-triaza-1-azoniaadamantane chloride]
[1]; contact time 24 hours
  Log10 Reduction Facultative Anaerobes: 2
[2]; contact time 24 hours
  Log10 Reduction Anaerobes: 3

## CCCCCCCCCCCCCC[P+](CCCC)(CCCC)CCCC.[Cl-] [Example 25, tri n-butyl n-tetradecyl phosphonium chloride]
[1]; contact time 48 hours
  Log10 Reduction Facultative Anaerobes: 6
[2]; contact time 48 hours
  Log10 Reduction Anaerobes: 5

## ClC=CC[N+]12CN3CN(CN(C3)C1)C2.[Cl-] [Example 27, 1-(3-chloroallyl)-3,5,7-triaza-1-azoniaadamantane chloride]
[1]; contact time 48 hours
  Log10 Reduction Facultative Anaerobes: 2
[2]; contact time 48 hours
  Log10 Reduction Anaerobes: 5

## ClC=CC[N+]12CN3CN(CN(C3)C1)C2.[Cl-] [Example 28, 1-(3-chloroallyl)-3,5,7-triaza-1-azoniaadamantane chloride]
[1]; contact time 48 hours
  Log10 Reduction Facultative Anaerobes: 3
[2]; contact time 48 hours
  Log10 Reduction Anaerobes: 5
